Some test systems named below: A549; SR; RXF 393; MDA-MB-231; U-251; SNB-75; SF-295; SK-OV-3; RPMI-8226; SW-620; SK-MEL-2; LOX IMVI; K562; KM12; ACHN; M14; HCT-116; T47D; UACC-257; NCI-H226.
Assay in all cases: NCI tumour cell line growth inhibition, 48 h

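Interpolation was linear, between the two tested concentrations surrounding the appropriate level; five concentrations were tested over 48 hours in 96-well plates. GI50 is the concentration that inhibits growth by half.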 Active and inactive are the calls of the source. No stated cut-off is given here; in the data, active = GI50 up to about 1.1 µM and inactive = higher.

For `N#Cc1c(N2CCN(c3ccc([N+](=O)[O-])cc3)CC2)[n+]([O-])c2ccccc2[n+]1[O-]`, the GI50 in the experiment with A549 is 99.5 µM (inactive); in the experiment on SR it was 1.28 µM (inactive); with RXF 393 it was > 100 µM (inactive); in the experiment with MDA-MB-231 it was > 100 µM (inactive); in the experiment on U-251, 78.2 µM (inactive); in the experiment on SNB-75, > 100 µM (inactive). The GI50 in the experiment with SF-295 was > 100 µM (inactive); with SK-OV-3, > 100 µM (inactive); with RPMI-8226, 6.5 µM (inactive); with SW-620 it was > 100 µM (inactive); in the experiment on SK-MEL-2, > 100 µM (inactive); in the experiment on LOX IMVI it was 32.4 µM (inactive). For the same compound, the GI50 in the experiment on K562 is 6.78 µM (inactive); in the experiment with KM12, > 100 µM (inactive); in the experiment with ACHN, > 100 µM (inactive); in the experiment on M14 it was > 100 µM (inactive); with HCT-116, > 100 µM (inactive); in the experiment on T47D, 55.6 µM (inactive). For the same compound, the GI50 with UACC-257 was > 100 µM (inactive).

As to `CC1(C)CC(=O)/C(=C/C2CCNC2=S)C(=O)N1` (centres undefined), the GI50 in the experiment with A549, with SR, in the experiment on MDA-MB-231, with U-251, in the experiment on SNB-75 and with SF-295 was > 100 µM (inactive) in each case. The GI50 in the experiment on SK-OV-3, with RPMI-8226, with SW-620, in the experiment on SK-MEL-2, with NCI-H226 and in the experiment with LOX IMVI was > 100 µM (inactive) in each case. Further, the GI50 in the experiment on K562, in the experiment on KM12, in the experiment with ACHN, with M14, with HCT-116 and with T47D was > 100 µM (inactive) in each case. Further, the GI50 in the experiment with UACC-257 was > 100 µM (inactive).

As to `CC(=O)Nc1sc(Br)cc1S(=O)(=O)c1ccc(Cl)cc1`, the GI50 in the experiment with A549 is 29.2 µM (inactive); in the experiment with SR, 14.6 µM (inactive); in the experiment on RXF 393, 20 µM (inactive); in the experiment on MDA-MB-231 it was > 100 µM (inactive); in the experiment on U-251, 34.8 µM (inactive); in the experiment with SNB-75, 28.2 µM (inactive). In addition, the GI50 is 31.2 µM (inactive) in the experiment on SF-295; 43.1 µM (inactive) in the experiment with SK-OV-3; 23.2 µM (inactive) with RPMI-8226; 71.1 µM (inactive) in the experiment on SW-620; 30.1 µM (inactive) with SK-MEL-2; 19.1 µM (inactive) in the experiment with NCI-H226. The GI50 in the experiment on K562 is 21.1 µM (inactive); in the experiment on KM12, 20.3 µM (inactive); in the experiment with ACHN it was 34 µM (inactive); in the experiment with M14, 15.2 µM (inactive); in the experiment on HCT-116, 26.1 µM (inactive); with T47D, 32.1 µM (inactive). The GI50 with UACC-257 was 29.9 µM (inactive).

With `CCN(CC)Cc1ccc(Nc2c3ccccc3nc3ccccc23)cc1`, the GI50 with A549 was 1.28 µM (inactive); in the experiment on SR, 2.17 µM (inactive); in the experiment with RXF 393 it was 1.72 µM (inactive); in the experiment with MDA-MB-231 it was 1.66 µM (inactive); in the experiment on U-251, 2.16 µM (inactive); with SF-295 it was 2.62 µM (inactive). Also, the GI50 in the experiment with SK-OV-3 is 2 µM (inactive); in the experiment with SW-620 it was 1.64 µM (inactive); with SK-MEL-2, 2.99 µM (inactive); with LOX IMVI, 1.56 µM (inactive); in the experiment on K562 it was 1.6 µM (inactive); with KM12 it was 3.17 µM (inactive). The GI50 in the experiment on ACHN is 0.364 µM (active); in the experiment with M14, 1.77 µM (inactive); with HCT-116, 1.16 µM (inactive); in the experiment on T47D, 4.16 µM (inactive); in the experiment with UACC-257 it was 1.71 µM (inactive).

Consider `CCOC(=O)c1nnc2c(C#N)c(-c3ccccc3)c(C)n2c1N`, for which the GI50 in the experiment on A549 is 39.9 µM (inactive); in the experiment with SR, 36.1 µM (inactive); in the experiment with RXF 393, 98.4 µM (inactive); in the experiment on MDA-MB-231 it was 51.8 µM (inactive); in the experiment on U-251, 38 µM (inactive); with SF-295, 34.1 µM (inactive). The GI50 in the experiment with SK-OV-3 was 23.9 µM (inactive); in the experiment with RPMI-8226, 22.7 µM (inactive); with SW-620, 40.6 µM (inactive); with SK-MEL-2 it was 42.4 µM (inactive); in the experiment with LOX IMVI it was 34.7 µM (inactive); in the experiment on K562 it was 31.8 µM (inactive). Also, the GI50 with KM12 was 30.6 µM (inactive); in the experiment on ACHN, 29.9 µM (inactive); in the experiment on M14 it was 34.9 µM (inactive); in the experiment with HCT-116 it was 42.2 µM (inactive); with T47D, 53.7 µM (inactive); in the experiment with UACC-257, 25.4 µM (inactive).

On to `N#Cc1ncn(-c2ccccc2)c1N`, for which the GI50 in the experiment with A549, with SR, in the experiment on MDA-MB-231, in the experiment with U-251, in the experiment with SNB-75 and in the experiment with SF-295 was > 100 µM (inactive) each time. Besides, the GI50 with SK-OV-3, in the experiment on RPMI-8226, in the experiment with SW-620, in the experiment with SK-MEL-2, in the experiment with NCI-H226 and in the experiment on LOX IMVI was > 100 µM (inactive) throughout. Further, the GI50 with K562, in the experiment with KM12, in the experiment on ACHN, in the experiment with M14, in the experiment with HCT-116 and with T47D was > 100 µM (inactive) throughout. For the same compound, the GI50 in the experiment on UACC-257 was > 100 µM (inactive).

As for `COC12OC3(C4OC41)C(C(=O)O[C@H]3CO[Si](C)(C)C(C)(C)C)C2S(=O)(=O)c1ccccc1` (some centres undefined), the GI50 is > 4.65 µM (inactive) in the experiment with A549; 2.63 µM (inactive) in the experiment with SR; < 0.01 µM (active) in the experiment with RXF 393; > 4.65 µM (inactive) in the experiment with MDA-MB-231; > 4.65 µM (inactive) with U-251; > 25.5 µM (inactive) in the experiment with SF-295. Besides, the GI50 is > 4.65 µM (inactive) in the experiment on SK-OV-3; 1.67 µM (inactive) with RPMI-8226; 1.52 µM (inactive) in the experiment with SW-620; > 4.65 µM (inactive) with SK-MEL-2; > 100 µM (inactive) in the experiment with NCI-H226; 1.6 µM (inactive) in the experiment with K562. In addition, the GI50 was 2.69 µM (inactive) in the experiment with ACHN, 4.16 µM (inactive) in the experiment on HCT-116, > 83.9 µM (inactive) in the experiment on T47D and > 4.65 µM (inactive) with UACC-257.

Turning to `Nc1n[n+]([O-])c2cnccc2[n+]1[O-]`, the GI50 in the experiment with A549 was 33.9 µM (inactive); in the experiment with SR, 54.7 µM (inactive); in the experiment on MDA-MB-231 it was 42.9 µM (inactive); with U-251, 58.2 µM (inactive); with SNB-75 it was > 100 µM (inactive); in the experiment with SF-295, 45.6 µM (inactive). In addition, the GI50 was > 100 µM (inactive) in the experiment on SK-OV-3; > 100 µM (inactive) with RPMI-8226; 38.4 µM (inactive) in the experiment on SW-620; > 100 µM (inactive) in the experiment with SK-MEL-2; > 100 µM (inactive) in the experiment on NCI-H226; 52.2 µM (inactive) with LOX IMVI. Further, the GI50 with KM12 was 58.7 µM (inactive); in the experiment on ACHN, 50.9 µM (inactive); with M14, 22.3 µM (inactive); in the experiment with HCT-116, 32.4 µM (inactive); in the experiment on T47D it was 59.7 µM (inactive); with UACC-257, 24 µM (inactive).

Regarding `N#Cc1c(-c2cccc(Cl)c2)cc(-c2ccc(Cl)cc2)nc1N`, the GI50 is 17.5 µM (inactive) in the experiment with A549; 15.3 µM (inactive) in the experiment on SR; 16.7 µM (inactive) in the experiment with RXF 393; 16.1 µM (inactive) in the experiment on MDA-MB-231; 16.6 µM (inactive) with U-251; 17.2 µM (inactive) in the experiment on SF-295. Further, the GI50 in the experiment on SK-OV-3 was 18.3 µM (inactive); in the experiment with RPMI-8226, 18.1 µM (inactive); with SW-620, 17.5 µM (inactive); in the experiment on SK-MEL-2, 18.1 µM (inactive); in the experiment with NCI-H226, 16.3 µM (inactive); with LOX IMVI it was 17.1 µM (inactive). Moreover, the GI50 in the experiment with K562 was 34.4 µM (inactive); in the experiment with KM12, 25.2 µM (inactive); with ACHN, 17.7 µM (inactive); in the experiment with M14 it was 19.1 µM (inactive); with HCT-116, 16.5 µM (inactive); in the experiment on T47D, 27 µM (inactive). The GI50 in the experiment with UACC-257 is 15.3 µM (inactive).

On to `Clc1ccc(C2=NN=C3C(c4ccccc4)=Nc4ccccc4N3C2)cc1`, for which the GI50 with A549 is 13.5 µM (inactive); in the experiment with SR it was 1.08 µM (active); in the experiment with RXF 393, 1.48 µM (inactive); in the experiment with MDA-MB-231 it was 32.7 µM (inactive); in the experiment on U-251, 5.46 µM (inactive); with SF-295 it was 11.1 µM (inactive). Besides, the GI50 in the experiment with SK-OV-3 is > 74.8 µM (inactive); in the experiment on RPMI-8226, 2.63 µM (inactive); with SW-620, 5.45 µM (inactive); with SK-MEL-2, 17.7 µM (inactive); in the experiment with NCI-H226, 6.52 µM (inactive); in the experiment on LOX IMVI it was 3.76 µM (inactive). For the same compound, the GI50 in the experiment on K562 is 2.88 µM (inactive); in the experiment with KM12 it was 6.82 µM (inactive); with ACHN, 7.06 µM (inactive); in the experiment on M14 it was 2.79 µM (inactive); in the experiment on HCT-116 it was 4.17 µM (inactive); with T47D, 1.45 µM (inactive). Besides, in the experiment with UACC-257, the GI50 is 5.73 µM (inactive).

Consider `N#C[BH2-][n+]1cn(C2CC(O)C(COP(=O)(O)OC3CC(n4cnc5c(=O)[nH]c(N)nc54)OC3CO)O2)c2nc(N)[nH]c(=O)c21` (centres undefined), for which the GI50 in the experiment on A549 was > 100 µM (inactive); with SR, 1 µM (active); with RXF 393 it was 97.3 µM (inactive); with MDA-MB-231, > 100 µM (inactive); with U-251, > 100 µM (inactive); in the experiment with SNB-75, > 100 µM (inactive). The GI50 was > 100 µM (inactive) in the experiment with SF-295; > 100 µM (inactive) in the experiment with SW-620; > 100 µM (inactive) in the experiment on SK-MEL-2; 23.1 µM (inactive) with NCI-H226; > 100 µM (inactive) with KM12; > 100 µM (inactive) in the experiment on ACHN. The GI50 in the experiment with M14, in the experiment on HCT-116, in the experiment on T47D and in the experiment on UACC-257 was > 100 µM (inactive) each time.

These data come from ChEMBL document CHEMBL1201862, “PubChem BioAssay data set” (2004).
